Source: article PMC4556614 (PLoS ONE, 2015)
Read-outs that look alike come from different tables or passages of the source.

Key:
OCT2 [1] = target: T1, OCT2 (Homo sapiens, UniProt O15244); experiment: Inhibition of OCT2-mediated [3H]MPP+ uptake in HEK-OCT2 cells
Description: (§1) For the transport assays HEK cell lines stably transfected with human OCT2 (HEK-OCT2) or the vector only (HEK-VC) were used. The HEK-OCT2 cell line was established and characterized previously. HEK-OCT2 and HEK-VC cells were seeded in poly-D-lysine (Sigma Aldrich, Taufkirchen, Germany) coated 48-well-plates at a density of 1.2 x 10^5 cells/well. […] Uptake was stopped by washing the cells three times with ice-cold uptake buffer. Afterwards, cells were lysed with 5 mM Tris buffer (pH 7.3) containing 0.1% Triton X-100. The intracellular accumulation of radioactivity was determined by liquid scintillation counting (PerkinElmer, Rodgau-Jügesheim, Germany) and protein concentration of each lysate was measured with bicinchonic acid assay (BCA Protein Assay Kit, Thermo Fisher Scientific, Waltham, MA, USA). We performed two to eight experiments each on at least two separate days, i.e., n = 4–16.

OCT2 [2] = target: T1, OCT2; experiment: in vitro
Description: as §1
Experimental half-maximal inhibitory concentrations (IC50 values) were measured as the substrate uptake in the presence of increasing concentrations of test drugs. These experiments were performed as described above (three experiments each on two separate days, i.e., n = 6). IC50 values were calculated with GraphPad Prism 5.0 (GraphPad Software, San Diego, CA, USA). IC50 was estimated by a sigmoidal inhibition model and was fit to the equation V = V 0 / (1 + (I / IC50 ) ^n ) by nonlinear regression. V is the net uptake in the presence of the inhibitor, V 0 is the net uptake in the absence of the inhibitor, I is the concentration of the inhibitor and n is the slope.

[3] = test drug 20 µM, MPP+ 50 μM, 3 min, net uptake HEK-OCT2 minus HEK-VC
[4] = test drug 200 µM, MPP+ 50 μM, 3 min, net uptake HEK-OCT2 minus HEK-VC
[5] = human, pH 7.3, probe [3H]MPP+, 50 µM
[6] = human, pH 7.3, probe [14C]metformin, 1000 µM, % Inhibition of OCT2-dependent MF uptake at 20 µM (mean ± SEM), test drug 20 µM, metformin 1000 μM, 3 min, net uptake HEK-OCT2 minus HEK-VC
[7] = human, pH 7.3, probe [14C]metformin, 1000 µM, % Inhibition of OCT2-dependent MF uptake at 200 µM (mean ± SEM), test drug 200 µM, metformin 1000 μM, 3 min, net uptake HEK-OCT2 minus HEK-VC

T1 sequence (O15244 whole entry): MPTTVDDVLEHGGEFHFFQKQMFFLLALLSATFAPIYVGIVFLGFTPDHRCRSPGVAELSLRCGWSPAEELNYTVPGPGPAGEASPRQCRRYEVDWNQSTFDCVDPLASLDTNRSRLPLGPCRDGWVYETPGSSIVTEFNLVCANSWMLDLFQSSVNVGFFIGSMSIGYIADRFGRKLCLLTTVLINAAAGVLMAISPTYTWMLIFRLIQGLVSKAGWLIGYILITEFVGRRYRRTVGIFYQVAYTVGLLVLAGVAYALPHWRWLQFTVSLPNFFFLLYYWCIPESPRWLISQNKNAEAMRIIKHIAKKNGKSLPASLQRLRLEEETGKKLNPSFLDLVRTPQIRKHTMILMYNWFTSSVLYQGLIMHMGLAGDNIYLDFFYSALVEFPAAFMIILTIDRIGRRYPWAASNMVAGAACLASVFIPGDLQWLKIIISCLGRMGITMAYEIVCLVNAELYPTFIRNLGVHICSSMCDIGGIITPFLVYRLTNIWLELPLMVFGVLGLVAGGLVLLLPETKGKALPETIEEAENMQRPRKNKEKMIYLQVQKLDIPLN

Row | Compound | % Inhibition of OCT2-dependent MPP+ uptake at 20 µM (mean ± SEM) (OCT2 [1]; [3]) | % Inhibition of OCT2-dependent MPP+ uptake at 200 µM (mean ± SEM) (OCT2 [1]; [4]) | % Inhibition of OCT2-dependent MF uptake at 20 µM (mean ± SEM) (OCT2 [2]; human, pH 7.3) | % Inhibition of OCT2-dependent MF uptake at 200 µM (mean ± SEM) (OCT2 [2]; human, pH 7.3) | other results
1 | C#C[C@]1(O)CC[C@H]2[C@@H]3CCc4cc(O)ccc4[C@H]3CC[C@@]21C [Ethinylestradiol] | 14.0 ± 8.8% | 46.8 ± 6.3% | 31.8 ± 8.1 | 62.2 ± 13.1 | 
2 | Cc1ccc(-c2ncc(Cl)cc2-c2ccc(S(C)(=O)=O)cc2)cn1 [Etoricoxib] | 2.3 ± 4.0% | 72.4 ± 2.2% | 64.1 ± 6.8 | 99.2 ± 2.7 | 
3 | O=C1[C@H](CC[C@H](O)c2ccc(F)cc2)[C@@H](c2ccc(O)cc2)N1c1ccc(F)cc1 [Ezetimibe] |  |  |  |  | inhibition at 3 min, 20 µM (OCT2 [1]; [5]): -12.6 ± 12.4%; inhibition at 3 min, 200 µM (OCT2 [1]; [5]): -13.2 ± 11.5%; inhibition at 3 min, 20 µM (OCT2 [2]; [6]): -6.8 ± 9.7%; inhibition at 3 min, 200 µM (OCT2 [2]; [7]): 0.2 ± 10%
4 | CCOC(=O)C1=C(C)NC(C)=C(C(=O)OC)C1c1cccc(Cl)c1Cl (centres unmarked) [Felodipine] | -8.8 ± 12.0% | -16.8 ± 10.8% | 4.9 ± 6.1 | 15.9 ± 12.1 | 
5 | CC(C)OC(=O)C(C)(C)Oc1ccc(C(=O)c2ccc(Cl)cc2)cc1 [Fenofibrate] | 12.8 ± 5.0% | 32.0 ± 5.7% | 43.0 ± 9.9 | 73.4 ± 4.7 | 
6 | CN1C(=O)CN=C(c2ccccc2F)c2cc([N+](=O)[O-])ccc21 [Flunitrazepam] | 5.1 ± 8.4% | 57.5 ± 6.6% | 74.1 ± 3.1 | 92.9 ± 0.9 | 
7 | CNCCC(Oc1ccc(C(F)(F)F)cc1)c1ccccc1 (centres unmarked) [Fluoxetine] | 20.2 ± 3.5% | 91.8 ± 2.9% | 79.0 ± 0.9 | 98.5 ± 1.2 | 
8 | OCCN1CCN(CCCN2c3ccccc3Sc3ccc(C(F)(F)F)cc32)CC1 [Fluphenazine] | 39.3 ± 7.0% | 94.3 ± 3.3% |  | 99.3 ± 0.4 | 
9 | CC(C)n1c(/C=C/C(O)CC(O)CC(=O)O)c(-c2ccc(F)cc2)c2ccccc21 (centres unmarked) [Fluvastatin] | -10.1 ± 6.1% | 5.8 ± 9.1% | -21.1 ± 10.3 | 32.5 ± 8.1 | 
10 | NCC1(CC(=O)O)CCCCC1 [Gabapentin] |  |  | 9.1 ± 8.2 | 37.6 ± 4.2 | % Inhibition of OCT2-dependent MPP+ uptake at 20 µM (mean ± SEM) (OCT2 [1]; human, pH 7.3): -8.4 ± 9.6; % Inhibition of OCT2-dependent MPP+ uptake at 200 µM (mean ± SEM) (OCT2 [1]; human, pH 7.3): -12.5 ± 9.4
11 | COc1ccc2c3c1O[C@H]1C[C@@H](O)C=C[C@@]31CCN(C)C2 [Galantamine] | -11.7 ± 9.4% | 12.3 ± 7.0% | 51.5 ± 2.8 | 92.5 ± 1.2 | 
12 | COc1ccc(Cl)cc1C(=O)NCCc1ccc(S(=O)(=O)NC(=O)NC2CCCCC2)cc1 [Glibenclamide] | -27.7 ± 5.0% | -31.1 ± 1.7% | 38.7 ± 11.9 | 87.9 ± 3.2 | 
13 | CCC1=C(C)CN(C(=O)NCCc2ccc(S(=O)(=O)NC(=O)N[C@H]3CC[C@H](C)CC3)cc2)C1=O [Glimepiride] | 31.1 ± 7.6% | 53.8 ± 15.2% | 66.8 ± 2.9 | 65.6 ± 4.6 | 
14 | O=C(CCCN1CCC(O)(c2ccc(Cl)cc2)CC1)c1ccc(F)cc1 [Haloperidol] | -11.2 ± 5.0% | -10.6 ± 5.1% | 6.4 ± 8.9 | 66.9 ± 5.3 | 
15 | NS(=O)(=O)c1cc2c(cc1Cl)NCNS2(=O)=O [Hydrochlorothiazide] | -55.4 ± 10.2% | -36.6 ± 7.4% | -34.7 ± 16.9 | -38.6 ± 8.5 | 
16 | CC(C)Cc1ccc(C(C)C(=O)O)cc1 (centres unmarked) [Ibuprofen] | -5.8 ± 8.0% | -0.3 ± 7.5% | 23.4 ± 6.7 | 29.6 ± 4.1 | 
17 | CCCCC1=NC2(CCCC2)C(=O)N1Cc1ccc(-c2ccccc2-c2nnn[nH]2)cc1 [Irbesartan] | -18.9 ± 12.4% | -50.7 ± 14.1% | -16.2 ± 14.4 | -14.2 ± 17.8 | 
18 | O=[N+]([O-])O[C@H]1CO[C@H]2[C@@H]1OC[C@H]2O[N+](=O)[O-] [Isosorbide dinitrate] |  |  |  |  | inhibition at 3 min, 20 µM (OCT2 [1]; human, pH 7.3): -20.4 ± 5%; inhibition at 3 min, 200 µM (OCT2 [1]; human, pH 7.3): -82.4 ± 8%; inhibition at 3 min, 20 µM (OCT2 [2]; human, pH 7.3): -19.5 ± 6.9%; inhibition at 3 min, 200 µM (OCT2 [2]; human, pH 7.3): 21.7 ± 4.4%
19 | COC(=O)C1=C(C)NC(C)=C(C(=O)OC(C)(C)CN(C)CCC(c2ccccc2)c2ccccc2)C1c1cccc([N+](=O)[O-])c1 (centres unmarked) [Lercanidipine] |  |  |  |  | inhibition at 3 min, 20 µM (OCT2 [1]; [5]): -13.3 ± 8.6%; inhibition at 3 min, 200 µM (OCT2 [1]; [5]): -9.3 ± 3.6%; inhibition at 3 min, 20 µM (OCT2 [2]; [6]): 7.8 ± 3.8%; inhibition at 3 min, 200 µM (OCT2 [2]; [7]): -20.4 ± 11.1%
20 | N[C@@H](Cc1ccc(O)c(O)c1)C(=O)O [Levodopa] | -24.6 ± 0.5% | 11.8 ± 1.4% | -9.3 ± 6.8 | 67.3 ± 2.6 | 
21 | N[C@@H](Cc1cc(I)c(Oc2cc(I)c(O)c(I)c2)c(I)c1)C(=O)O [Levothyroxine] |  |  |  |  | inhibition at 3 min, 20 µM (OCT2 [1]; [5]): 3.6 ± 4.1%; inhibition at 3 min, 200 µM (OCT2 [1]; [5]): -3.3 ± 10.3%; inhibition at 3 min, 20 µM (OCT2 [2]; [6]): 0.8 ± 9.6%; inhibition at 3 min, 200 µM (OCT2 [2]; [7]): 14.3 ± 15.2%
22 | NCCCC[C@H](N[C@@H](CCc1ccccc1)C(=O)O)C(=O)N1CCC[C@H]1C(=O)O [Lisinopril] | 16.0 ± 9.0% | 9.8 ± 11.8% | -10.3 ± 12.9 | 2.9 ± 9.0 | 
23 | [Li] [Lithium] | -28.4 ± 7.5% | -36.7 ± 9.7% |  |  | % Inhibition of OCT2-dependent MF uptake at 20 µM (mean ± SEM) (OCT2 [2]): -15.2 ± 7.9; % Inhibition of OCT2-dependent MF uptake at 200 µM (mean ± SEM) (OCT2 [2]): -14.7 ± 6.8
24 | O=C1Nc2ccc(Cl)cc2C(c2ccccc2Cl)=NC1O (centres unmarked) [Lorazepam] | 0.3 ± 5.1% | 17.7 ± 7.3% | 32.0 ± 2.2 | 96.5 ± 1.0 | 
